Assay results from patent publication US10858347B2, “Multicyclic compounds and uses thereof” (Karyopharm Therapeutics Inc., priority 2015, dated 2020).

Legend:
Z138 cells = assay: MTT cell proliferation assay, Z138 cells; type: cell-based, human; conditions: Homo sapiens, Z-138; Z138 cells (mature B-cell acute lymphoblastic leukemia cell line); approximately 64-72 hours incubation
Description: (§1) The MTT cell proliferation assay was used to study the cytotoxic properties of the compounds. The assay was performed according to the method described by Roche Molecular Biochemicals, with minor modifications. The assay is based on the cleavage of the tetrazolium salt, MTT, in the presence of an electron-coupling reagent. The water-insoluble formazan salt produced must be solubilized in an additional step. Cells grown in a 96-well tissue culture plate were incubated with the MTT solution for approximately 4 hours. After this incubation period, a water-insoluble formazan dye formed. After solubilization, the formazan dye was quantitated using a scanning multi-well spectrophotometer (ELISA reader). […] The cells were seeded at 5,000-10,000 cells in each well of 96-well plate in 100 μL of fresh culture medium and were allowed to attach overnight. The stock solutions of the compounds were diluted in 100 μL cell culture medium to obtain eight concentrations of each test compound, ranging from 1 nM to 30 μM. […] All optical densities were measured at 490 nm using a Vmax Kinetic Microplate Reader (Molecular Devices). In most cases, the assay was performed in duplicate and the results were presented as a mean percent inhibition to the negative control±SE. The following formula was used to calculate the percent of inhibition: Inhibition (%)=(1−(ODo/OD))×100.
(§2) The compounds were tested against MS751, Z138 and 3T3 cells. The MS751 cell line is derived from a metastasis to lymph node of human cervix from a patient diagnosed with squameous cell carcinoma of the cervix. The Z138 cell line is a mature B-cell acute lymphoblastic leukemia cell line derived from a patient with chronic lumphocytic leukemia. 3T3 cells are standard fibroblast cells; they were originally isolated from Swiss mouse embryo tissue.

MS751 cells = assay: MTT cell proliferation assay, MS751 cells; type: cell-based; conditions: MS751 cells (human cervix squamous cell carcinoma, lymph node metastasis); approximately 64-72 hours incubation
Description: as §1, §2

3T3 cells = assay: MTT cell proliferation assay, 3T3 cells; type: cell-based; conditions: NIH3T3; 3T3 cells (standard fibroblast cells, Swiss mouse embryo); approximately 64-72 hours incubation
Description: as §1, §2

Structure (SMILES)	IC50 (Z138 cells) [µM]	IC50 (MS751 cells) [µM]	IC50 (3T3 cells) [µM]
Nc1ccc(CNC(=O)NCc2cc3cc(-c4ccc(C(=O)N5CCC(F)(F)CC5)cc4)cc(-c4ccc(F)cc4)c3o2)cn1 [Compound 100, 1-((6-aminopyridin-3-yl)methyl)-3-((5-(4-(4,4-difluoropiperidine-1-carbonyl)phenyl)-7-(4-fluorophenyl)benzofuran-2-yl)methyl)urea]	< 0.1	< 0.1	0.1 to 5
Nc1ccc(NC(=O)NCc2cc3cc(-c4ccc(C(=O)N5CCC(F)(F)CC5)cc4)cc(-c4ccc(F)cc4)c3o2)cn1 [Compound 101, 1-(6-aminopyridin-3-yl)-3-((5-(4-(4,4-difluoropiperidine-1-carbonyl)phenyl)-7-(4-fluorophenyl)benzofuran-2-yl)methyl)urea]	0.1 to 5	0.1 to 5	> 10
O=C(NCc1cc2cc(-c3ccc(C(=O)N4CCC(F)(F)CC4)cc3)cc(-c3ccc(F)cc3)c2o1)N1Cc2ccncc2C1 [Compound 102, N-((5-(4-(4,4-difluoropiperidine-1-carbonyl)phenyl)-7-(4-fluorophenyl)benzofuran-2-yl)methyl)-1H-pyrrolo[3,4-c]pyridine-2(3H)-carboxamide]	< 0.1	< 0.1	0.1 to 5
Nc1ccc(C2CN(C(=O)NCc3cc4cc(-c5ccc(C(=O)N6CCC(F)(F)CC6)cc5)cc(-c5ccc(F)cc5)c4o3)C2)cn1 [Compound 103, 3-(6-aminopyridin-3-yl)-N-((5-(4-(4,4-difluoropiperidine-1-carbonyl)phenyl)-7-(4-fluorophenyl)benzofuran-2-yl)methyl)azetidine-1-carboxamide]	< 0.1	0.1 to 5	0.1 to 5
O=C(NCCc1cc2cc(-c3ccc(C(=O)N4CCC(F)(F)CC4)cc3)cc(-c3ccc(F)cc3)c2o1)N1Cc2ccncc2C1 [Compound 107, N-(2-(5-(4-(4,4-difluoropiperidine-1-carbonyl)phenyl)-7-(4-fluorophenyl)benzofuran-2-yl)ethyl)-1H-pyrrolo[3,4-c]pyridine-2(3H)-carboxamide]	< 0.1	< 0.1	0.1 to 5
O=C(NCc1cc2cc(-c3ccc(C(=O)N4CCC(F)(F)CC4)cc3)cc(-c3ccc(F)cc3F)c2o1)N1Cc2ccncc2C1 [Compound 108, N-((7-(2,4-difluorophenyl)-5-(4-(4,4-difluoropiperidine-1-carbonyl)phenyl)benzofuran-2-yl)methyl)-1H-pyrrolo[3,4-c]pyridine-2(3H)-carboxamide]	< 0.1	< 0.1	> 10
Nc1cc2c(cn1)CN(C(=O)NCc1cc3cc(-c4ccc(C(=O)N5CCC(F)(F)CC5)cc4)cc(-c4ccc(F)cc4)c3o1)C2 [Compound 115, 6-amino-N-((5-(4-(4,4-difluoropiperidine-1-carbonyl)phenyl)-7-(4-fluorophenyl)benzofuran-2-yl)methyl)-1H-pyrrolo[3,4-c]pyridine-2(3H)-carboxamide]	< 0.1	–	0.1 to 5
Nc1ccc(CNC(=O)NCc2cc3cc(-c4ccc(C(=O)N5CCC(F)(F)CC5)cn4)cc(-c4ccc(F)cc4)c3o2)cn1 [Compound 116, 1-((6-aminopyridin-3-yl)methyl)-3-((5-(5-(4,4-difluoropiperidine-1-carbonyl)pyridin-2-yl)-7-(4-fluorophenyl)benzofuran-2-yl)methyl)urea]	< 0.1	–	0.1 to 5
Nc1ccc(CNC(=O)NCc2cc3cc(-c4ccc(C(=O)N5CC(F)(F)C5)cc4)cc(C(F)(F)F)c3o2)cn1 [Compound 117, 1-((6-aminopyridin-3-yl)methyl)-3-((5-(4-(3,3-difluoroazetidine-1-carbonyl)phenyl)-7-(trifluoromethyl)benzofuran-2-yl)methyl)urea]	5 to 10	–	> 10
N#C/N=C(\NCc1cc2cc(-c3ccc(C(=O)N4CCC(F)(F)CC4)cc3)cc(-c3ccc(F)cc3)c2o1)Nc1ccc(N)nc1 [Compound 118, (E)-1-(6-aminopyridin-3-yl)-2-cyano-3-((5-(4-(4,4-difluoropiperidine-1-carbonyl)phenyl)-7-(4-fluorophenyl)benzofuran-2-yl)methyl)guanidine]	> 10	> 10	> 10
N#C/N=C(/NCc1ccc(N)nc1)NCc1cc2cc(-c3ccc(C(=O)N4CCC(F)(F)CC4)cc3)cc(-c3ccc(F)cc3)c2o1 [Compound 119, (Z)-1-((6-aminopyridin-3-yl)methyl)-2-cyano-3-((5-(4-(4,4-difluoropiperidine-1-carbonyl)phenyl)-7-(4-fluorophenyl)benzofuran-2-yl)methyl)guanidine]	0.1 to 5	0.1 to 5	> 10
O=C(NCc1ccc(-c2ccc(-c3ccc(C(=O)N4CCC(F)(F)CC4)cc3)cc2-c2ccc(F)cc2)o1)N1Cc2ccncc2C1 [Compound 120, N-((5-(4-(4,4-difluoropiperidine-1-carbonyl)-4″-fluoro-[1,1′:3′,1″-terphenyl]-4′-yl)furan-2-yl)methyl)-1,3-dihydro-2H-pyrrolo[3,4-c]pyridine-2-carboxamide]	< 0.1	–	> 10
O=C(NCCOc1ccc(-c2ccc(C(=O)N3CCC(F)(F)CC3)cc2)cc1-c1ccc(F)cc1)N1Cc2ccncc2C1 [Compound 121, N-(2-((4-(4,4-difluoropiperidine-1-carbonyl)-4″-fluoro-[1,1′:3′,1″-terphenyl]-4′-yl)oxy)ethyl)-1,3-dihydro-2H-pyrrolo[3,4-c]pyridine-2-carboxamide]	< 0.1	< 0.1	> 10
O=C(NCC1Cc2cc(-c3ccc(C(=O)N4CCC(F)(F)CC4)cc3)cc(-c3ccc(F)cc3)c2O1)N1Cc2ccncc2C1 (centres unmarked) [Compound 122, N-((5-(4-(4,4-difluoropiperidine-1-carbonyl)phenyl)-7-(4-fluorophenyl)-2,3-dihydrobenzofuran-2-yl)methyl)-1,3-dihydro-2H-pyrrolo [3,4-c]pyridine-2-carboxamide]	< 0.1	–	< 0.1
Nc1ccc(CNC(=O)NCC2Cc3cc(-c4ccc(C(=O)N5CCC(F)(F)CC5)cc4)cc(-c4ccc(F)cc4)c3O2)cn1 (centres unmarked) [Compound 123, 1-((6-aminopyridin-3-yl)methyl)-3-((5-(4-(4,4-difluoropiperidine-1-carbonyl)phenyl)-7-(4-fluorophenyl)-2,3-dihydrobenzofuran-2-yl)methyl)urea]	< 0.1	–	0.1 to 5
Nc1ccc(CNC(=O)NCc2ccc(-c3ccc(-c4ccc(C(=O)N5CCC(F)(F)CC5)cc4)cc3-c3ccc(F)cc3)o2)cn1 [Compound 125, 1-((6-aminopyridin-3-yl)methyl)-3-((5-(3-(4-fluorophenyl)-4′-(4,4-difluoropiperidine-1-carbonyl)biphenyl-4-yl)furan-2-yl)methyl)urea]	< 0.1	–	> 10
